Reference: patent US20040043403A1, “Process for determining the biological activity of epidermal growth factor receptor tyrosine kinase inhibitors” (priority 2000, published 2004)

Columns and labels:
A431 cells = experiment: Real time RT-PCR gene expression in A431 cells; type: cell-based, human
Procedure: (§1) 20 million tissue culture cells (about 80% confluent) or 200 million WBCs are incubated for 2 or 24 h in culture medium containing 3 μM of an EGFR tyrosine kinase inhibitor or 0.03% DMSO. Total RNA from cell pellet is isolated using the RNeasy kit (Qiagen). mRNA is isolated using the oligotex mRNA purification kit (Qiagen). The quality of the obtained mRNA is tested by real time RT-PCR using beta-Actin primers (PE Applied Biosystems) with an amplicon size of 300 base pairs (bp). The total RNA is used as a reference to calculate the amount of mRNA-enrichment in the oligotex purified samples. 2 million A431 cells at about 80% confluency are treated with an EGFR tyrosine kinase inhibitor (100, 300 or 3000 nM) or 0.03% DMSO and incubated for 4, 8, 16 or 24 h. Total RNA is isolated using the RNeasy kit. The primers and probes are designed from mRNA sequences within the coding region or in the 3′ untranslated region (Table 2). For real time RT-PCR, RNA concentrations between 1 and 50 ng/reaction are used to obtain signals between 15-35 cycles. For each RNA preparation RT-PCR reactions are performed with and without reverse transcriptase to check for genomic DNA contamination. In all RNA samples tested, genomic DNA contamination is less than 1%. To normalize for variability in the initial concentration and quality of the total RNA, Glyceraldehyde-3-phosphate dehydrogenase (GAPDH) is used as an endogenous reference in all quantification experiments. For RT-PCR a one step, two-enzyme system is chosen. The TaqMan PCR Core Reagent Kit (PE #N808-0228) plus the reverse transcriptase MuLV (PE Biosystems # N808-0018) and RNase inhibitor (Roche Diagnostics # 799 025) are mixed as described in the manufacturers protocol. Triplicate measurements are done for target and for reference reactions. […] RT-PCR reactions are done with RNA concentrations of 2.5, 5, 10, 20, 40 and 80 ng per reaction. The absolute value of the slope of (log input amount) vs. ΔCT should be <0.1. The ΔCT value is determined by subtracting the average reference CT values from the average target CT values of the three measurements. Relative quantification is performed in triplicates, reference and target, using the RT-PCR protocol described above.

MDA-MB468 = experiment: Real time RT-PCR gene expression in MDA-MB468 cells; type: cell-based, human; conditions: MDA-MB468, 3 μM, 24 h; relative to DMSO-treated NCI-H520 calibrator
Procedure: as §1, with “samples.” for “samples. 2 million A431 cells at about 80% confluency are treated with an EGFR tyrosine kinase inhibitor (100, 300 or 3000 nM) or 0.03% DMSO and incubated for 4, 8, 16 or 24 h. Total RNA is isolated using the RNeasy kit.”, “The absolute value of the slope of (log input amount) vs. ΔCT should be <0.1.” left out, “above. […] Expression levels for the three genes, calculated relative to NCI-H520, show big differences between the various cell types (Table 5). […]” for “above.”

[1] = tested on: Epidermal Growth Factor (EGF)-responsive tumors; conditions: disclosed in WO 97/02266; cited from earlier work
[2] = A431, 3 μM, 24 h, relative to DMSO-treated NCI-H520 calibrator
[3] = A431 cells, 3 μM, 24 hours, Experiment 1
[4] = A431 cells, 3 μM, 24 hours, Experiment 2
[5] = A431 cells, 3 μM, 24 hours, Experiment 3

## C[C@@H](Nc1ncnc2[nH]c(-c3ccc(O)cc3)cc12)c1ccccc1 [COMPOUND A, (R)-6-(4-hydroxy-phenyl)-4-[(1-phenyl-ethyl)-amino]-7H-pyrrolo[2,3-d]pyrimidine]
A431 cells; [2]
  Relative Clusterin expression: 247.28 n-fold
  Relative TRAIL expression: 99.50 n-fold
  Relative VAC-beta expression: 57.20 n-fold
A431 cells; A431 cells, 100 nM, 300 nM and 3 μM, 4 to 24 h, real time RT-PCR
  Induction of clusterin gene expression, dose and time dependency (FIGS. 1A and 1B): shows dose and time dependency
A431 cells; [3]
  Gene induction, Real time RT-PCR Experiment 1: Acute phase serum amyloid A protein: 6.6
  Gene induction, Real time RT-PCR Experiment 1: Cathepsin H: 5.2
  Gene induction, Real time RT-PCR Experiment 1: Caveolin: 2.8 ± 0.2
  Gene induction, Real time RT-PCR Experiment 1: Complement component 3 (C3): 5.6
  Gene induction, Real time RT-PCR Experiment 1: Complement cytolysis inibitor (Clusterin): 11.2 ± 2.0
  Gene induction, Real time RT-PCR Experiment 1: DNA binding protein inhibitor ID-3: 4.4
  Gene induction, Real time RT-PCR Experiment 1: Extracellular protein S1-5: 3.2 ± 1.7
  Gene induction, Real time RT-PCR Experiment 1: TGF-beta induced gene: 5.2
  Gene induction, Real time RT-PCR Experiment 1: TRAIL: 7.8 ± 1.6
  Gene induction, Real time RT-PCR Experiment 1: VAC-beta (annexin VIII): 2.8 ± 1.5
A431 cells; [4]
  Gene induction, Real time RT-PCR Experiment 2: Acute phase serum amyloid A protein: 2.5 ± 1.1
  Gene induction, Real time RT-PCR Experiment 2: Cathepsin H: 2.6 ± 0.9
  Gene induction, Real time RT-PCR Experiment 2: Caveolin: 1.5 ± 0.4
  Gene induction, Real time RT-PCR Experiment 2: Complement component 3 (C3): 2.5 ± 0.4
  Gene induction, Real time RT-PCR Experiment 2: Complement cytolysis inibitor (Clusterin): 5.2 ± 1.4
  Gene induction, Real time RT-PCR Experiment 2: DNA binding protein inhibitor ID-3: 2.2 ± 0.1
  Gene induction, Real time RT-PCR Experiment 2: Extracellular protein S1-5: 1.7 ± 0.2
  Gene induction, Real time RT-PCR Experiment 2: TRAIL: 4.1 ± 1.4
  Gene induction, Real time RT-PCR Experiment 2: VAC-beta (annexin VIII): 2.4 ± 0.9
A431 cells; [5]
  Gene induction, Real time RT-PCR Experiment 3: Acute phase serum amyloid A protein: 3.3
  Gene induction, Real time RT-PCR Experiment 3: Cathepsin H: 2.1
  Gene induction, Real time RT-PCR Experiment 3: Caveolin: 2.6
  Gene induction, Real time RT-PCR Experiment 3: Complement component 3 (C3): 2.0
  Gene induction, Real time RT-PCR Experiment 3: Complement cytolysis inibitor (Clusterin): 6.2
  Gene induction, Real time RT-PCR Experiment 3: DNA binding protein inhibitor ID-3: 2.4
  Gene induction, Real time RT-PCR Experiment 3: Extracellular protein S1-5: 1.2 ± 0.5
  Gene induction, Real time RT-PCR Experiment 3: TRAIL: 5.7 ± 0.03
  Gene induction, Real time RT-PCR Experiment 3: VAC-beta (annexin VIII): 2.5 ± 0.8
MDA-MB468
  Relative Clusterin expression: 32.60 n-fold
  Relative TRAIL expression: 2.89 n-fold
  Relative VAC-beta expression: 26.60 n-fold
[1]
  Anti-proliferative activity against EGF-responsive tumors: exhibits anti-proliferative activity
